Measured values reported in US12084472B2 (Ardelyx, Inc., priority 2015, dated 2024).

Target: T1, human TGR5 (Homo sapiens, UniProt Q8TDU6)
T1 construct: expressed in transfected cells; host or cells: HEK293
T1 sequence (Q8TDU6 1-330): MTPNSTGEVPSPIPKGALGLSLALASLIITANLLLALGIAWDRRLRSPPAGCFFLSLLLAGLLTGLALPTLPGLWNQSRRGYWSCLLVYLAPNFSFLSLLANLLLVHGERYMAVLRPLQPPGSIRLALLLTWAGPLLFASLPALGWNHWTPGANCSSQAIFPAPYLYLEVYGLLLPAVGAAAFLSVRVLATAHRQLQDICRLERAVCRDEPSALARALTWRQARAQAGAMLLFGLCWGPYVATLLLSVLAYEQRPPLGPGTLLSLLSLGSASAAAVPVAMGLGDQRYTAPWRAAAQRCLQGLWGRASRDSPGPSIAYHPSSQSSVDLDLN
Assay: Cell-based TGR5 assay (cAMP generation, HTRF)
Conditions: HEK293 cells stably transfected with human TGR5; cAMP by HTRF; 30 minutes at 37° C.; read-out: pEC50 Human TGR5 (converted)
Method in brief: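 First, compounds in 3-fold serial dilution were placed in HBSS with 10 mM HEPES pH 7.4 and 0.5 mM IBMX. Next, human TGR5-expressing HEK293 cells were added and incubated 30 min at 37° C. Finally, cAMP was detected by HTRF and pEC50 derived by logistic fitting.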

Compound	EC50
CN(C[C@H](O)[C@@H](O)[C@H](O)[C@H](O)CO)C(=O)CCCCc1cc(Cl)c(COC2(c3cnccc3-c3ccccc3OC3CC3)CC2)cc1Cl [Compound I-136, 5-[2,5-dichloro-4-({1-[4-(2-cyclopropoxyphenyl)pyridin-3-yl]cyclopropoxy}methyl)phenyl]-N-methyl-N-[(2S,3R,4R,5R)-2,3,4,5,6-pentahydroxyhexyl]pentanamide]	< 100 nM
Cc1ccc(CCCCC(=O)N(C)C[C@H](O)[C@@H](O)[C@H](O)[C@H](O)CO)cc1COC1(c2cnccc2-c2ccccc2OC2CC2)CC1 (stereo in doubt) [Compound I-236, 5-[3-({1-[4-(2-cyclopropoxyphenyl)pyridin-3-yl]cyclopropoxy}methyl)-4-methylphenyl]-N-methyl-N-[(2S,3R,4R,5R)-2,3,4,5,6-pentahydroxyhexyl]pentanamide]	< 100 nM
CCN(CCCCc1cc(Cl)c(COC2(c3cnccc3-c3ccccc3OC3CC3)CC2)cc1Cl)C(=O)[C@@H](O)[C@@H](O)[C@H](O)[C@@H](O)CO (stereo in doubt) [Compound I-209, (2S,3S,4R,5S)-N-{4-[2,5-dichloro-4-({1-[4-(2-cyclopropoxyphenyl)pyridin-3-yl]cyclopropoxy}methyl)phenyl]butyl}-N-ethyl-2,3,4,5,6-pentahydroxyhexanamide]	< 100 nM
FC(F)(F)COc1ccccc1-c1ccncc1C1(NCc2cc(Cl)ccc2Cl)CC1 [Compound I-8, N-[(2,5-dichlorophenyl)methyl]-1-{4-[2-(2,2,2-trifluoroethoxy)phenyl]pyridin-3-yl}cyclopropan-1-amine]	126 to 1000 nM
CN(C[C@H](O)[C@@H](O)[C@H](O)[C@H](O)CO)C(=O)CN1CCN(CCNC(=O)CCCCc2cc(Cl)c(COC3(c4cnccc4-c4ccccc4OC4CC4)CC3)cc2Cl)CC1 [Compound I-100, 5-[2,5-dichloro-4-({1-[4-(2-cyclopropoxyphenyl)pyridin-3-yl]cyclopropoxy}methyl)phenyl]-N-{2-[4-({methyl[(2S,3R,4R,5R)-2,3,4,5,6-pentahydroxyhexyl]carbamoyl}methyl)piperazin-1-yl]ethyl}pentanamide]	< 100 nM

Next, values leading:

EC50	Compound
126 to 1000 nM	O=C(CCCSc1ccc(Cl)c(COC2(c3cnccc3-c3ccccc3OC3CC3)CC2)c1)N(CCCCO)C[C@H](O)[C@@H](O)[C@H](O)[C@H](O)CO [Compound I-692, 4-{[4-chloro-3-({1-[4-(2-cyclopropoxyphenyl)pyridin-3-yl]cyclopropoxy}methyl)phenyl]sulfanyl}-N-(4-hydroxybutyl)-N-[(2S,3R,4R,5R)-2,3,4,5,6-pentahydroxyhexyl]butanamide]
< 100 nM	CN(CCCCNC(=O)NC[C@H](O)[C@@H](O)[C@H](O)[C@H](O)CO)S(=O)(=O)c1ccc(Cl)c(CNC2(c3cnccc3-c3ccccc3OC3CC3)CC2)c1 [Compound I-471, 1-(4-{N-methyl4-chloro-3-[({1-[4-(2-cyclopropoxyphenyl)pyridin-3-yl]cyclopropyl}amino)methyl]benzenesulfonamido}butyl)-3-[(2S,3R,4R,5R)-2,3,4,5,6-pentahydroxyhexyl]urea]
< 100 nM	C[C@H](CCCN)c1ccc(Cl)c(CNC2(c3cnccc3-c3ccccc3OC3CC3)CC2)c1 (single isomer, unassigned) [Compound I-251]
< 100 nM	CC(CCCN(CCN1CCS(=O)(=O)CC1)C(=O)[C@@H](O)[C@@H](O)[C@H](O)[C@@H](O)CO)c1ccc(Cl)c(CNC2(c3cnccc3-c3ccccc3OC3CC3)CC2)c1 (stereo partly drawn) [Compound I-298, (2S,3S,4R,5S)-N-(4-{4-chloro-3-[({1-[4-(2-cyclopropoxyphenyl)pyridin-3-yl]cyclopropyl}amino)methyl]phenyl}pentyl)-N-[2-(1,1-dioxo-1λ^6,4-thiomorpholin-4-yl)ethyl]-2,3,4,5,6-pentahydroxyhexanamide]
